Source: EP4555995B1, “COSMETIC USE OF A CYCLOPROPENE FATTY ACID FOR INHIBITING SCD ACTIVITY” (Laboratoires d'Anjou, priority 2023, dated 2025)
Values joined by “and” are separate entries in the source; they are usually repeats but may differ in a detail not shown here. Equal values may be shown once.

Columns and labels:
[1] = system: cellules de mélanome murin B16 stimulées par le NDP-MSH; experiment: Melanin synthesis in B16 melanoma cells stimulated by NDP-MSH (total melanin content, absorbance at 405 nm); format: cell-based; settings: for Teneur en mélanine: NDP-MSH 0,1 µM, 72 h, percent of stimulated control, individual replicates
Excerpt: Dans la présente étude, l'effet blanchissant potentiel de l'acide sterculique a été évalué sur la synthèse de mélanine dans les cellules de mélanome murin B16 stimulées par un analogue stable de l'α-MSH, le NDP-MSH ([Nle4, D-Phe7]-α-Melanocyte Stimulating Hormone).
Le modèle de mélanocyte B16 constitue un modèle approprié pour la recherche d'effets inhibiteurs sur la production de mélanine car il est très réactif (par exemple à une stimulation NDP-MSH), ce qui entraîne une forte modulation de la production de mélanine entre les conditions basales et les conditions stimulées. Cette forte production de mélanine dans des conditions stimulées permet d'identifier les composés présentant des propriétés blanchissantes.
(§1) • Modèle biologique : • Type cellulaire : Lignée cellulaire de mélanome murin B16 (= mélanocytes B16) • Conditions de culture : 37°C, 5% CO2 • Milieu de culture : DMEM sans rouge de phénol optimisé pour l'essai, complété par du sérum de veau fœtal à 10%. • Composé testé : acide sterculique 50, 100 et 200 µM (dans 0.066% ethanol) • Essai préliminaire de cytotoxicité • Type de cellule : Cellules de mélanome murin B16 en milieu de culture • Durée d'incubation : 72 heures • Paramètres d'évaluation : Essai de réduction WST-8 et observations morphologiques à l'aide d'un microscope. Après traitement, les cellules sont incubées avec du WST-8 (sel de tétrazolium très soluble dans l'eau) réduit en un produit soluble dans l'eau de couleur orange (formazan) par la succinate déshydrogé-nase (enzyme mitochondriale). Cette transformation est proportionnelle au nombre de cellules vivantes et à leur activité métabolique. La densité optique (DO) des extraits à 450 nm a été enregistrée avec un spectromètre (VERSAmax, Molecular Devices). • Culture et traitement
Des cellules de mélanome B16 ont été ensemencées dans une plaque à 96 puits et incubées dans un milieu de culture pendant 24 heures.
Le milieu a ensuite été remplacé par du milieu de culture, en présence de NDP-MSH à 0,1 µM, contenant ou non : - le solvant témoin (éthanol testé à 0,066 %), • le composé d'essai acide sterculique testé à 50, 100 ou 200 µM, • l'acide kojique de référence testé à 0,5 mM ou 3 mM, • la combinaison du composé testé acide sterculique (50, 100 ou 200 µM) et de l'acide kojique à 0,5 mM.
Les cellules ont été incubées pendant 72 heures. En parallèle, une condition de contrôle non stimulée a été réalisée.
À la fin du temps d'incubation, l'absorbance à 405 nm a été mesurée et la teneur totale en mélanine (extracellulaire et intracellulaire) a été calculée pour chaque échantillon à l'aide d'une courbe standard de mélanine allant de 0,78 à 100 µg/ml.
Les valeurs de fond (interférences potentielles), mesurées dans les puits sans cellules, ont été soustraites aux valeurs calculées afin de considérer l'effet lié à la production de mélanine uniquement.
Les résultats ont été exprimés en pourcentage de mélanine par rapport au contrôle stimulé.

[2] = system: cellules de mélanome murin B16; experiment: Preliminary cytotoxicity test, WST-8 reduction assay; format: cell-based; settings: for % de cellules viables: 72 h incubation, WST-8, individual replicates
Experimental: Avant cet essai, un essai de cytotoxicité a été réalisé à l'aide d'un essai standard de réduction WST-8, afin de déterminer les concentrations à tester dans cette étude.
as §1
L'erreur standard de la moyenne (sem) est une mesure de la distance probable entre la moyenne de l'échantillon et la moyenne réelle de la population. Elle est calculée en divisant l'écart-type par la racine carrée de la taille de l'échantillon. Pourcentage deviabilité: viabilité(%) = (ODéchantillon/ODcontrôle) × 100 [formula] [formula]

cellules B16 = experiment: Total protein quantity (DC Protein Assay) in B16 cells of the melanin test; format: cell-based, murin; settings: 200 µM; concluded from protein content
Experimental: La quantité de protéines totales contenues dans les cellules et les surnageants de chaque réplicat a été mesurée à l'aide du kit DC Protein Assay contre une gamme de BSA avec un lecteur de microplaques à 750 nm (VERSAmax, Molecular Devices).
Kit : DC Protein Assay de BIO-RAD ref 500-0116.
Limite de détection basse : 0,2 mg/ml Limite de détection haute : 2 mg/ml Pour chaque condition de test, la quantité de mélanine a été normalisée par rapport à la quantité de protéines totales.

Compound | inhibition relative ([1]; 0,5 mM, melanin synthesis in NDP-MSH-stimulated B16 cells) [%] | inhibition relative ([1]; 3 mM, inhibition of the NDP-MSH effect on melanin synthesis) [%] | Teneur en mélanine ([1]; KA 0,5 mM, listed as KA) | Teneur en mélanine ([1]; KA 3 mM, listed as KA) | % de cellules viables ([2]; AcSter 12 µM) | % de cellules viables ([2]; AcSter 37 µM) | % de cellules viables ([2]; AcSter 111 µM) | % de cellules viables ([2]; AcSter 333 µM) | % de cellules viables ([2]; AcSter 1000 µM) | % de cellules viables ([2]; AcSter 1,5 µM) | effet sur la viabilité ([2]; up to 111 µM, B16 cells, WST-8 (Fig 1)) | effet sur la synthèse de mélanine ([1]; 50 µM, NDP-MSH-stimulated B16 cells) | inhibition relative ([1]; 100 µM and 200 µM, strong, concentration-dependent inhibition of melanin synthesis) [%] | inhibition de la teneur en mélanine ([1]; 100 µM, B16 cells (Fig 2)) | efficacy on melanin content compared with acide kojique à 3mM ([1]; 200 µM, B16 cells (Fig 2)) | inhibition de la teneur en mélanine ([1]; 200 µM, B16 cells (Fig 2)) | Teneur en mélanine ([1]; AS 50 µM, listed as AS) | Teneur en mélanine ([1]; AS 100 µM, listed as AS) | Teneur en mélanine ([1]; AS 200 µM, listed as AS) | viabilité des cellules (cellules B16)
O=c1cc(CO)occ1O [acide kojique, reference compound] | 65 | 89 | 31,36483% and 49,33155% and 42,04703% | 17,4540% and 20,7219% and 19,5020% | – | – | – | – | – | – | – | – | – | – | – | – | – | – | – | –
CCCCCCCCC1=C(CCCCCCCC(=O)O)C1 [acide sterculique, 8-(2-octyl-cyclopropen-1-yl)-octanoic acid] | – | – | – | – | 112,1381% and 146,2746% and 110,4588% | 82,74032% and 102,0043% and 72,79147% | 112,2056% and 119,9363% and 106,0771% | 26,41552% and 44,06769% and 52,32917% | 1,061339% and 1,910951% and 2,113628% | 133,9982% and 119,6442% and 122,5711% | n'a pas eu d'effet sur la viabilité | n'a eu aucun effet | ≤ 93 | inhibition marquée | aussi efficace que l'acide kojique à 3mM | inhibition marquée | 103,1496% and 125,1337% and 106,9156% | 57,21785% and 56,01605% and 61,96404% | 13,64829% and 13,90374% and 21,16183% | n'inhibe pas la viabilité des cellules
